Assay results as given in patent US9518046B2 (Calitor Sciences, LLC, priority 2015, dated 2016).

Columns and labels:
[1] = Compound stability in human liver microsomes; type: in vitro ADME; conditions: for half-life at 5 μM: human liver microsomes 0.5 mg protein/mL, compound 5 μM, NADPH 1.0 mM, pH 7.4, 37° C., read-out: Human T1/2; for CLint scaled at 5 μM: liver microsomes, pH 7.4, in vivo CLint extrapolated from human liver microsome incubation
Method: (§1) Human or rat liver microsomes incubations were conducted in duplicate in polypropylene tubes. The typical incubation mixtures consisted of human or rat liver microsomes (0.5 mg protein/mL), compounds of interest (5 μM) and NADPH (1.0 mM) in a total volume of 200 μL potassium phosphate buffer (PBS, 100 mM, pH 7.4). Compounds were dissolved in DMSO and diluted with PBS such that the final concentration of DMSO was 0.05%. The enzymatic reactions were commenced with the addition of protein after a 3-min preincubation and incubated in a water bath open to the air at 37° C. Reactions were terminated at various time points (0, 5, 10, 15, 30, 60 min) by adding equal volume of ice-cold acetonitrile. The samples were stored at −80° C. until LC/MS/MS assays.
(§2) The concentrations of compounds in the incubation mixtures of human or rat liver microsomes were determined by a LC/MS/MS method. The ranges of the linearity in the concentration range were determined for each tested compounds.
(§3) A parallel incubation was performed using denatured microsomes as the negative control, and reactions were terminated at various time points (0, 15, 60 min) after incubation at 37° C.
(§4) Dextromethorphan (70 μM) was selected as the positive control, and reactions were terminated at various time points (0, 5, 10, 15, 30, 60 min) after incubation at 37° C. Both positive and negative control samples were included in each assay to ensure the integrity of the microsomal incubation system.
(§5) The concentrations of compounds in human or rat liver microsome incubations were plotted as a percentage of the relevant zero time point control for each reaction. The in vivo CLint were extrapolated (ref.: Naritomi, Y.; Terashita, S.; Kimura, S.; Suzuki, A.; Kagayama, A.; and Sugiyama, Y.; Prediction of human hepatic clearance from in vivo animal experiments and in vitro metabolic studies with liver microsomes from animals and humans. Drug Metab. Dispos., 2001, 29: 1316-1324).

[2] = Compound stability in rat liver microsomes; type: in vitro ADME; conditions: for CLint scaled at 5 μM: liver microsomes, pH 7.4, in vivo CLint extrapolated from rat liver microsome incubation; for half-life at 5 μM: rat liver microsomes 0.5 mg protein/mL, compound 5 μM, NADPH 1.0 mM, pH 7.4, 37° C., read-out: Rat T1/2
Method: as §1, §2, §3, §4, §5

[3] = Pharmacokinetics after intravenous and oral administration in rats; type: in vivo; conditions: for CL/F / bioavailability: Rats; for CL/F: iv dosing, dose 1 mg/kg (0.5 for Ex. 1, 10, 11, 35; 0.48 for Ex. 24); for AUC(0-t) / half-life / Vd / bioavailability: rat, plasma; for AUC(0-t) / half-life / Vd: iv, 1 mg/kg; for Vd: read-out: Vss; for bioavailability: oral (p.o.) generally 5 or 10 mg/kg versus iv dosing
In short: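 Dosing used solution, suspension or capsule formulations: 1 or 2 mg/kg IV in all species; PO 5 or 10 mg/kg in mice and rats, 10 mg/kg in dogs and monkeys. Plasma sampled from 0.083 or 0.25 h up to 24 h post-dose; concentrations determined by LC/MS/MS in MRM mode.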

[4] = target: T1, PI3K (p110α/p85α) (h) (Homo sapiens, UniProt P42336); test: PI3K (p110α/p85α) (h) non-radioactive HTRF kinase assay; type: biochemical; conditions: Kinase inhibition data; performed at Millipore UK Ltd
T1 construct: purchased Millipore UK Ltd
T1 sequence (P42336 whole entry): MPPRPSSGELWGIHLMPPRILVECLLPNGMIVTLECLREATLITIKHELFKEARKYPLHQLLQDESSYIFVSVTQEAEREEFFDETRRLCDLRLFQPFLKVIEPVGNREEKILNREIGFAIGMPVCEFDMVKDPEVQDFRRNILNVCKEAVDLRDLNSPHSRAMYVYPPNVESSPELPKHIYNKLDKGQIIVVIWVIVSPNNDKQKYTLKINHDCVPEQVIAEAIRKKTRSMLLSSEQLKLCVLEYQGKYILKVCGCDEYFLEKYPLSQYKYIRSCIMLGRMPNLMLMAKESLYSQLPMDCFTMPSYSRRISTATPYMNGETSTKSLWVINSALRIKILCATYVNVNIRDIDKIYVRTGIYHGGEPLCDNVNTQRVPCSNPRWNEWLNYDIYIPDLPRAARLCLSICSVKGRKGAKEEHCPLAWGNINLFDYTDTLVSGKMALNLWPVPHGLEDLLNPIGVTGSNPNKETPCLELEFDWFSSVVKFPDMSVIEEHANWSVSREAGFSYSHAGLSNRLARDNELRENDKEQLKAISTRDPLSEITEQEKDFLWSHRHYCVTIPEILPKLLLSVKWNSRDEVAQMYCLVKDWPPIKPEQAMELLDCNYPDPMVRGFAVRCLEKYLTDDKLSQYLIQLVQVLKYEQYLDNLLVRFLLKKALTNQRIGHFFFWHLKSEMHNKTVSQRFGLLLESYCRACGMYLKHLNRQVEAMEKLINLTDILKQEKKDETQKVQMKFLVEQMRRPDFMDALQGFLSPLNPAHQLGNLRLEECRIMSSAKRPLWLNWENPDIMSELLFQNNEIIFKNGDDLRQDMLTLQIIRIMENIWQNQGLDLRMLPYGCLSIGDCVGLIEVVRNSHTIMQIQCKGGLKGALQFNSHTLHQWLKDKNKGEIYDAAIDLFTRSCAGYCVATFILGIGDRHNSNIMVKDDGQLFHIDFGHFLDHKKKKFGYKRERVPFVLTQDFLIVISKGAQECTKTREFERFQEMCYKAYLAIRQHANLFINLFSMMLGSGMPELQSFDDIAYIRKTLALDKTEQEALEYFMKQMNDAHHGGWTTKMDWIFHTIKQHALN
T1 sequence (P27986 whole entry partner): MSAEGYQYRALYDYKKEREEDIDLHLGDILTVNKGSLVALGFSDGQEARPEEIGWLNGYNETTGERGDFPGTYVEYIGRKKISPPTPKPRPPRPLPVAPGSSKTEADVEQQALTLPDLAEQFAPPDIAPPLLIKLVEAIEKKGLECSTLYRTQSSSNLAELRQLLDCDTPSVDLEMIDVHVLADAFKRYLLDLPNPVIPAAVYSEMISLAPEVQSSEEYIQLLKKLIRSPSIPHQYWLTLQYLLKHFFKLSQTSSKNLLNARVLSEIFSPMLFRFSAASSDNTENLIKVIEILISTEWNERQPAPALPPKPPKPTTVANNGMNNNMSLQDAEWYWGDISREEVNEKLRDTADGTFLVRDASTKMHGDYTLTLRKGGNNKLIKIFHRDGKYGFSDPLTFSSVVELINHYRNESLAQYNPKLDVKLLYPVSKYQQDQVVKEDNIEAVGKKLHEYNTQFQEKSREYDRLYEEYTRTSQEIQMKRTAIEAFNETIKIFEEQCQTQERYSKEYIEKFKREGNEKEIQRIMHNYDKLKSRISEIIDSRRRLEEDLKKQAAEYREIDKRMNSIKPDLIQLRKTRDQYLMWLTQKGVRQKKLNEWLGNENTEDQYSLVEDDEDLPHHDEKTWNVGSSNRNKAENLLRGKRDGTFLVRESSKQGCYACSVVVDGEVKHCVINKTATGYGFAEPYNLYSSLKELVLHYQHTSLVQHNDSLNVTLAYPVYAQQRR
Method: (§6) The above assay procedure can be used to determine the IC50 for inhibition and/or the inhibition constant, Ki.
PI3K (p110α/p85α) (h) [Non-Radioactive Assay]
(§7) PI3K (p110α/p85α) (h) is incubated in assay buffer containing 10 μM phosphatidylinositol 4,5-bisphosphate and MgATP (concentration as required). The reaction is initiated by the addition of the ATP solution. After incubation for 30 minutes at room temperature, the reaction is stopped by the addition of stop solution containing EDTA and biotinylated phosphatidylinositol-3,4,5-trisphosphate. Finally, detection buffer is added, which contains europium-labelled anti-GST monoclonal antibody, GST-tagged GRP1 PH domain and streptavidin allophycocyanin. The plate is then read in timeresolved fluorescence mode and the homogenous time-resolved fluorescence (HTRF) signal is determined according to the formula HTRF=10000×(Em665 nm/Em620 nm).
(§8) The kinase assays described herein were performed at Millipore UK Ltd, Dundee Technology Park, Dundee DD2 1SW, UK.

[5] = target: T2, PI3K (h) p110β/p85α (Homo sapiens, UniProt P42338); test: PI3K (p110β/p85α) (h) non-radioactive HTRF kinase assay; type: biochemical; conditions: Kinase inhibition data; performed at Millipore UK Ltd
T2 construct: purchased Millipore UK Ltd
T2 sequence (P42338 whole entry): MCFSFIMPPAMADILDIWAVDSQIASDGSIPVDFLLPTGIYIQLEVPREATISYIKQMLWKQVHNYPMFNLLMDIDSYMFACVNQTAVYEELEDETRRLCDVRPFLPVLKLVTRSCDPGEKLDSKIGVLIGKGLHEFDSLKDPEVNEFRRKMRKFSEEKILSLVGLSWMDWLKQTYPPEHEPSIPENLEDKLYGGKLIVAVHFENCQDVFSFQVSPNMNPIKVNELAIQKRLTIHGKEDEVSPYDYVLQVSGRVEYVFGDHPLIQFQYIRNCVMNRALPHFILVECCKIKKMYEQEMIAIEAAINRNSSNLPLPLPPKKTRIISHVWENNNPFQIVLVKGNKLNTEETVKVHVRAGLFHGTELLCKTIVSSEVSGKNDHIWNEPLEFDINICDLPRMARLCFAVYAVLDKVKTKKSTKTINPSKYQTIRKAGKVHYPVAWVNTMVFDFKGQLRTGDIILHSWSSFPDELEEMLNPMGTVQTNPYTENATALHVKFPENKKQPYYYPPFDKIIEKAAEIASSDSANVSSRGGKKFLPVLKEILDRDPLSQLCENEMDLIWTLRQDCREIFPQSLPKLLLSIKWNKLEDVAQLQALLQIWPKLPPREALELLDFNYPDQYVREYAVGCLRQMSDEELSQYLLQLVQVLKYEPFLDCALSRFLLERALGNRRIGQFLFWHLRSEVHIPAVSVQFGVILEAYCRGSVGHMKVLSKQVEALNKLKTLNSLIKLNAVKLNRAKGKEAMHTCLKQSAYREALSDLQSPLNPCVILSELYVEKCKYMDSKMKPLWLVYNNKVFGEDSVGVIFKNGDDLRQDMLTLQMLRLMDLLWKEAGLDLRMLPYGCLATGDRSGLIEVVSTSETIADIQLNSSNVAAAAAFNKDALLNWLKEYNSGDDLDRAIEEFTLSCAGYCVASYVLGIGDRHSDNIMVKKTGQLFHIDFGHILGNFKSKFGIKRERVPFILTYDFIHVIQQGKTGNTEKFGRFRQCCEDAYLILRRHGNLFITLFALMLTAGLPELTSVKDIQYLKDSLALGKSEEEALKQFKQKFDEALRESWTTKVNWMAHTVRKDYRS
T2 sequence (P27986 whole entry partner): as the sequence (P27986 whole entry partner) above

[6] = target: T3, PI3K (p110δ/p85α) (h) (Homo sapiens, UniProt O00329); test: PI3K (p110δ/p85α) (h) non-radioactive HTRF kinase assay; type: biochemical; conditions: Kinase inhibition data; performed at Millipore UK Ltd
T3 construct: purchased Millipore UK Ltd
T3 sequence (O00329 whole entry): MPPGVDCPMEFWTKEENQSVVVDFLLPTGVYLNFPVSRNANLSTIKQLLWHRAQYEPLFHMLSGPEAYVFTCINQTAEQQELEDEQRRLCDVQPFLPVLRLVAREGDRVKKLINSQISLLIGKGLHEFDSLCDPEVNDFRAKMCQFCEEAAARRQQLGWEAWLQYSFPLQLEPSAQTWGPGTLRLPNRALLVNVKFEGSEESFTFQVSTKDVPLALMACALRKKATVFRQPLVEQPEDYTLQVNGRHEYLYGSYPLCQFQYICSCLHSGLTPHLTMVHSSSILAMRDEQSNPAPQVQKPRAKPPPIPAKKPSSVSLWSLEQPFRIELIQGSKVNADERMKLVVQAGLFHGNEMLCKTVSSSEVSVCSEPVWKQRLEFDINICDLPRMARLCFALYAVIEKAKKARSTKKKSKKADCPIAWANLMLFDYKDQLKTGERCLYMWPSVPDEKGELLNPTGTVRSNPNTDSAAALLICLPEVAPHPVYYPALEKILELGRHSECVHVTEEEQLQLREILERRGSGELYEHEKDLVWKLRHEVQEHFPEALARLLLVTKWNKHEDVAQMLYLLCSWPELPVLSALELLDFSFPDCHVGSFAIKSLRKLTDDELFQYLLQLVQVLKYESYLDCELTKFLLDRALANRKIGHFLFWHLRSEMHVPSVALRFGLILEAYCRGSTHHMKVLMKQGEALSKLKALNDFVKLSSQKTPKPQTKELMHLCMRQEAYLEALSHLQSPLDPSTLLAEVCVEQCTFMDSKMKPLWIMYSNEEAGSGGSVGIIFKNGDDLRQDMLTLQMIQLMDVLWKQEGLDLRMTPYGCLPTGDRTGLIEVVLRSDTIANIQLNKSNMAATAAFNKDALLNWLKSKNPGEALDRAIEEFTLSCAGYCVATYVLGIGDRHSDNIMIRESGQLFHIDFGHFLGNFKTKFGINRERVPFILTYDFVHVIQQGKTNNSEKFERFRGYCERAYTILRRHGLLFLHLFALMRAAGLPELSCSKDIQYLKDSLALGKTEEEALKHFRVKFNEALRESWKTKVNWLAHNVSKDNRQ
T3 sequence (P27986 whole entry partner): as the sequence (P27986 whole entry partner) above
Method: as §6
PI3K (p110δ/p85α) (h) [Non-Radioactive Assay]
as §7, with “(p110δ/p85α)” for “(p110α/p85α)”, “phosphatidylinositol-4, 5-bisphosphate” for “phosphatidylinositol 4,5-bisphosphate”, “MgATP mix.” for “ATP solution.”, “streptavidin-allophycocyanin.” for “streptavidin allophycocyanin.”
as §8

[7] = target: T4, PI3K (p120γ) (h) (Homo sapiens, UniProt P48736); test: PI3K (p120γ) (h) non-radioactive HTRF kinase assay; type: biochemical; conditions: Kinase inhibition data; performed at Millipore UK Ltd
T4 construct: purchased Millipore UK Ltd
T4 sequence (P48736 whole entry): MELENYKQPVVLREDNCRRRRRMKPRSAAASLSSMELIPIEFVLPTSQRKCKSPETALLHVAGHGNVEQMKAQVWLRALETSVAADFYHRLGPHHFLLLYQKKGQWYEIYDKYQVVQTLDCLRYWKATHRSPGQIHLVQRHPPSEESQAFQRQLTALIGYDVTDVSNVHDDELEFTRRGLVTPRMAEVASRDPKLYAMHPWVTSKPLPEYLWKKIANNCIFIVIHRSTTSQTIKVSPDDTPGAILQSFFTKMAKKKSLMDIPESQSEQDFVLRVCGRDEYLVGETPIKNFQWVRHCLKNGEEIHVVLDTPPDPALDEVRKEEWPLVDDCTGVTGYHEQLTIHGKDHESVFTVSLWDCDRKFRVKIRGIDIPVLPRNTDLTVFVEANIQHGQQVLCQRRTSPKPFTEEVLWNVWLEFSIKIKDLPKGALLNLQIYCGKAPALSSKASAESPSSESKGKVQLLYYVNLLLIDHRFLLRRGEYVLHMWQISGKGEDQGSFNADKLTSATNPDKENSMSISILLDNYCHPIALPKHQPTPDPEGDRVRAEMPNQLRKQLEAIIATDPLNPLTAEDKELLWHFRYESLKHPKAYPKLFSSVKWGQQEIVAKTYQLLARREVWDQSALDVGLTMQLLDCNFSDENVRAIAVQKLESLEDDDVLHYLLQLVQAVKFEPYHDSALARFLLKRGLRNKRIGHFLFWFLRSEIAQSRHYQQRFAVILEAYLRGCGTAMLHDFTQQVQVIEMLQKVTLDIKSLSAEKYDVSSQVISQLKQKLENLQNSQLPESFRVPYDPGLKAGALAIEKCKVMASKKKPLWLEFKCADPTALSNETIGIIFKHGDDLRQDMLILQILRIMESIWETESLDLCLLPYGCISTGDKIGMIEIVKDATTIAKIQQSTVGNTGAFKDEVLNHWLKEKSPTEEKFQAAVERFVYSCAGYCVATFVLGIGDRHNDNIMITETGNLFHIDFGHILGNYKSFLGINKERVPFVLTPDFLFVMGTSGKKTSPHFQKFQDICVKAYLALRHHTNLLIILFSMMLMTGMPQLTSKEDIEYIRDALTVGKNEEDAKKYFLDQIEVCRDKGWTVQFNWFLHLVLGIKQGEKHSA
Method: as §6
PI3K (p120γ) (h) [Non-Radioactive Assay]
as §7, with “(p120γ)” for “(p110α/p85α)”, “M phosphatidylinositol-4, 5-bisphosphate” for “μM phosphatidylinositol 4,5-bisphosphate”, “MgATP mix.” for “ATP solution.”, “streptavidin-allophycocyanin.” for “streptavidin allophycocyanin.”
as §8

Row | half-life at 5 μM [1] [h] | CLint scaled at 5 μM [1] [mL/min/kg] | CLint scaled at 5 μM [2] [mL/min/kg] | half-life at 5 μM [2] [h] | CL/F [3] [mL/min/kg] | AUC(0-t) [3] [ng·h/mL] | half-life [3] [h] | Vd [3] [L/kg] | bioavailability [3] [%] | IC50 [4] [µM] | IC50 [5] [µM] | IC50 [6] [µM] | IC50 [7] [µM] | Structure (SMILES)
1 | 1.22 | 23.8 | 17.6 | 2.36 | 5.83 | 2690 | 1.8 | 0.89 | 70 | 1.42 | 1.18 | 0.004 | 0.092 | Cc1noc(-c2c(N)ncnc2N[C@@H](C)c2nc3cccc(-c4cnn(C)c4)c3c(=O)n2-c2ccccc2)n1 [Ex. 68, (S)-2-(1-((6-amino-5-(3-methyl-1,2,4-oxadiazol-5-yl)pyrimidin-4-yl)amino)ethyl)-5-(1-methyl-1H-pyrazol-4-yl)-3-phenylquinazolin-4(3H)-one]
2 | 1.11 | 26.2 | 15.2 | 2.73 | 39.3 | 423 | 0.98 | 2.98 | 96.2 | 2.19 | 1.8 | 0.016 | 0.878 | Cc1noc(-c2c(N)ncnc2N[C@@H](C)c2nc3cccc(-c4cnn(C)c4)c3c(=O)n2C2CC2)n1 [Ex. 66, (S)-2-(1-((6-amino-5-(3-methyl-1,2,4-oxadiazol-5-yl)pyrimidin-4-yl)amino)ethyl)-3-cyclopropyl-5-(1-methyl-1H-pyrazol-4-yl)quinazolin-4(3H)-one]
3 | – | – | – | – | 65.8 | 270 | 0.98 | 3.85 | 35.9 | > 3 | > 3 | 0.142 | > 3 | CC[C@H](Nc1ncnc(N)c1-c1nnc(C)o1)c1nc2cccc(-c3cnn(C)c3)c2c(=O)n1C1CC1 [Ex. 72, (S)-2-(1-((6-amino-5-(5-methyl-1,3,4-oxadiazol-2-yl)pyrimidin-4-yl)amino)propyl)-3-cyclopropyl-5-(1-methyl-1H-pyrazol-4-yl)quinazolin-4(3H)-one]
4 | 2.31 | 12.6 | 9.99 | 4.14 | 15 | 1100 | 1.25 | 1.54 | 83 | > 3 | > 3 | 0.022 | 1.17 | Cc1nnc(-c2c(N)ncnc2N[C@@H](C)c2nc3cccc(-c4cnn(C)c4)c3c(=O)n2-c2ccccc2)o1 [Ex. 69, (S)-2-(1-((6-amino-5-(5-methyl-1,3,4-oxadiazol-2-yl)pyrimidin-4-yl)amino)ethyl)-5-(1-methyl-1H-pyrazol-4-yl)-3-phenylquinazolin-4(3H)-one]
